Structures can show the parent of a compound that is named as a salt. Where two headings read alike, the source gives them in different places. Marks after values point to notes of the source that are not given here.
Tested on: store-operated Ca^2+ entry in PLP-B lymphocytes
Assay: Store-operated Ca2+ entry after thapsigargin depletion of ER Ca2+ stores in PLP-B lymphocytes
Assay type: cell-based
Settings: for IC50: SOCE in PLP-B lymphocytes, average of three assays, ±0.5 μM
Description: The effects of the molecules developed were tested on PLP-B lymphocytes. Store-operated Ca^2+ entry was induced by depletion of Endoplasmic Reticulum Ca^2+ stores (ER Ca^2+ stores) with thapsigargin (Tg) in a Ca^2+-free medium and measured following the addition of 1.8 mM of CaCl2) in the extracellular medium. The results are compared to the results obtained for known SOCE inhibitors SKF-96365, GSK-7975A, Synta 66.

[1] = Lymphocyte, 50 μM, PLP-B lymphocytes, % of inhibition (−) or activation, DMSO control 100%, read-out: Effect on amplitude of SOCE Peak
[2] = Lymphocyte, 100 μM, PLP-B lymphocytes, % of inhibition (−) or activation, DMSO control 100%, read-out: Effect on amplitude of SOCE Peak
[3] = Lymphocyte, 10 μM, PLP-B lymphocytes, % of inhibition (−) or activation, DMSO control 100%, read-out: Effect on amplitude of SOCE Peak
[4] = Lymphocyte, 10 μM, thapsigargin (Tg) peak, PLP-B lymphocytes, % of inhibition (−) or activation, read-out: Effect on amplitude of Tg Peak
[5] = Lymphocyte, 50 μM, thapsigargin (Tg) peak, PLP-B lymphocytes, % of inhibition (−) or activation, read-out: Effect on amplitude of Tg Peak
[6] = Lymphocyte, 100 μM, thapsigargin (Tg) peak, PLP-B lymphocytes, % of inhibition (−) or activation, read-out: Effect on amplitude of Tg Peak
[7] = Lymphocyte, PLP-B lymphocytes, % of inhibition (−) or activation, DMSO control 100%, read-out: Effect on amplitude of SOCE Peak
[8] = Lymphocyte, 1 μM, PLP-B lymphocytes, % of inhibition (−) or activation, DMSO control 100%, read-out: Effect on amplitude of SOCE Peak
[9] = Lymphocyte, 1 μM, thapsigargin (Tg) peak, PLP-B lymphocytes, % of inhibition (−) or activation, read-out: Effect on amplitude of Tg Peak
[10] = 10 μM, PLP-B lymphocytes, % of inhibition (−) or activation, DMSO control 100%
[11] = 50 μM, PLP-B lymphocytes, % of inhibition (−) or activation, DMSO control 100%
[12] = 100 μM, PLP-B lymphocytes, % of inhibition (−) or activation, DMSO control 100%
[13] = Lymphocyte, thapsigargin (Tg) peak, PLP-B lymphocytes, % of inhibition (−) or activation, read-out: Effect on amplitude of Tg Peak

Row | Structure (SMILES) | inhibition at 50 µM [1] | inhibition at 100 µM [2] | inhibition at 10 µM [3] | inhibition at 10 µM [4] | inhibition at 50 µM [5] | inhibition at 100 µM [6] | other results
1 | COc1ccc(COc2ccc(CCn3ccc(C(F)(F)F)n3)cc2)cc1 [6βq DAD 2.333] | 5% | 37% | – | – | – | – | –
2 | COc1ccc(CCOc2ccc(CCn3ncc4ccccc43)cc2)cc1 [6αb DAD 4-573, 1-(4-(4-Methoxyphenethoxy)phenethyl)-1H-indazole] | – | 30% | -14% | 8% | 5% | 22% | percent change in peak amplitude vs DMSO control (negative = inhibition, positive = activation) at 50 µM [1]: 0%
3 | COc1cccc(CCOc2ccc(CCn3cnc4ccccc43)cc2)c1 [6αad DAD 4-567] | 81.7% | 84.3% | 28.1% | 5.7% | 9.1% | – | inhibition at 0.1 µM [7]: -12.9%; inhibition at 1 µM [8]: -2.9%; inhibition at 1 µM [9]: 16.2%
4 | COc1ccc(CCCOc2cccc(CCn3ccc(C(F)(F)F)n3)c2)cc1 [6βy DAD 3.531] | 34% | 64% | 13% | 17% | 23% | 30% | –
5 | Nc1ccc2c(c1)nc(C(F)(F)F)n2CCc1ccc(OCCCc2ccccc2)cc1 [6αv VAL 1-64] | 25% | 77% | -8% | – | -11% | -2% | percent change in peak amplitude vs DMSO control (negative = inhibition, positive = activation) at 10 µM [4]: 0%
6 | c1ccc(CCOc2ccc(CCn3cnc4ccccc43)cc2)cc1 [6αab DAD 4-553] | 2% | 46% | – | – | 1% | 8% | –
7 | Fc1ccc(CCOc2ccc(CCn3cnc4ccccc43)cc2)cc1 [6αd DAD 4-568] | -1.3% | 64% | 7.8% | 8.5% | 5.3% | 15.1% | –
8 | Oc1ccc(Cn2cnc3cc(F)ccc32)cc1 [9αe] | 5% | 21% | -6% | 3% | 8% | 15% | –
9 | c1ccc2c(c1)cnn2CCc1ccc(OC2CCCCO2)cc1 (stereo not shown) [11αe, 1-(4-((Tetrahydro-2H-pyran-2-yl)oxy)phenethyl)-1H-indazole] | 54% | 88% | 33% | 8% | 9% | 20% | inhibition at 0.1 µM [7]: 23%; inhibition at 1 µM [8]: 20%; IC50 (Lymphocyte): 40 µM
10 | Oc1ccc(CCn2cnc3ccccc32)cc1 [12αa, 1-(4-Hydroxyphenylethyl)-1H-benzo[d]imidazol hydrochloride] | 0.9% | -2.5% | -2.2% | -2.7% | -4.3% | -7.4% | –
11 | Oc1ccc(Cn2cnc3ccccc32)cc1 [9αa, 1-(4-hydroxyphenylmethyl)-1H-Benzo[d]imidazol] | 4% | -3% | -2% | -13% | 1% | 12% | –
12 | COc1ccc(OC)c(-c2ccc(NC(=O)c3ccncc3F)cc2)c1 [Synta 66, reference compound] | – | – | – | – | – | – | Effect on amplitude of SOCE peak (1 μM, PLP-B lymphocytes, % of inhibition (−) or activation, DMSO control 100%): 9.0%; Effect on amplitude of SOCE peak [10]: 6.0%; Effect on amplitude of SOCE peak [11]: −74.0%; Effect on amplitude of SOCE peak [12]: −89.0%; IC50: 8.8 µM
13 | CS(=O)(=O)Oc1ccc(Cn2cccn2)cc1 [8βa, 4-((1H-Pyrazol-1-yl)methyl)phenylmethanesulfonate] | – | – | – | – | – | – | Effect on amplitude of SOCE peak [10]: −30.0# %; Effect on amplitude of Tg Peak (10 μM, thapsigargin (Tg) peak, PLP-B lymphocytes, % of inhibition (−) or activation): −20.0# %; Effect on amplitude of SOCE peak [11]: −27.0# %; Effect on amplitude of Tg Peak (50 μM, thapsigargin (Tg) peak, PLP-B lymphocytes, % of inhibition (−) or activation): −14.0// %; Effect on amplitude of SOCE peak [12]: −25.0# %; Effect on amplitude of Tg Peak (100 μM, thapsigargin (Tg) peak, PLP-B lymphocytes, % of inhibition (−) or activation): −12.0// %
14 | c1ncn(CCc2ccc(OC3CCCCO3)cc2)n1 (stereo not shown) [11βa, 1-(4-((Tetrahydro-2H-pyran-2-yl)oxy)phenethyl)-1H-1,2,4-triazole] | 31% | 16% | 32% | 20% | 17% | 3% | –
15 | FC(F)(F)c1ccn(CCc2ccc(OCCCc3ccccc3)cc2)n1 [6βt DAD 3.363] | 7.7% | 19.1% | – | – | – | – | –
16 | COc1ccc(COc2ccc(CCn3nc(C(F)(F)F)cc3C(F)(F)F)cc2)cc1 [6βu DAD 2.334] | -0.2% | -0.4% | 2% | – | – | – | –
17 | Fc1ccc2c(c1)ncn2CCc1ccc(OCCc2ccc(OC3CCCCO3)cc2)cc1 (stereo not shown) [11αc, 5-Fluoro-1-(4-(4-((tetrahydro-2H-pyran-2-yl)oxy)phenethoxy)phenethyl)-1H-benzo[d]imidazole] | 54% | 35% | 31% | 10% | 12% | -3% | inhibition at 0.1 µM [7]: -67%; inhibition at 0.1 µM [13]: -16%; inhibition at 1 µM [8]: -26%; inhibition at 1 µM [9]: -4%; IC50 (Lymphocyte): 1.6 µM
18 | FC(F)(F)c1cc(C(F)(F)F)n(CCc2ccccc2OCCc2ccccc2)n1 [6βaa DAD 3.535] | 20% | 29% | 18% | 8% | 4% | 11% | –
19 | c1ccc(OCCCOc2ccc(CCn3cnc4ccccc43)cc2)cc1 [6αs DAD 4-570] | 19% | 56.9% | 9.4% | 10.6% | -0.7% | 4.1% | –
20 | COc1ccc(CCOc2ccc(CCn3c(C(F)(F)F)nc4ccccc43)cc2)cc1 [6αc DAD 4-546, 1-(4-(4-Methoxyphenethoxy)phenethyl)-2-trifluoromethyl-1H-benzo[d]imidazole] | 30% | 26% | – | – | 18% | 18% | –
21 | COc1ccc(CCOc2ccc(CCn3cccn3)cc2)cc1 [6βn DAD 2.307] | 7.2% | 62% | -6.5% | – | – | – | –
22 | COc1ccc(CCOc2ccc(CCn3nc(C(F)(F)F)cc3C(F)(F)F)cc2)cc1 [6βv DAD 2.266] | 29% | 30% | – | – | – | – | –
23 | COc1ccc(CCOc2ccc(CCn3cnc4c(Cl)cc(C(F)(F)F)cc43)cc2)cc1 [6αe DAD 4-548, 4-Chloro-1-(4-(4-methoxyphenethoxy)phenethyl)-6-(trifluoromethyl)-1H-benzo[d]imidazole] | 28% | 9% | – | – | -5% | -1% | –
24 | COc1ccc(CCCOc2ccc(CCn3nc(C(F)(F)F)cc3C(F)(F)F)cc2)cc1 [6βw DAD 2.335] | -0.1% | 11.8% | 4.6% | – | – | – | –
25 | FC(F)(F)c1ncn(CCc2ccc(OCCCc3ccccc3)cc2)n1 [6βi DAD 3.475] | 13% | 43% | – | – | 6% | 7% | –
26 | COc1ccc(CCOc2ccccc2CCn2cnc3ccccc32)cc1 [6αo DAD 4-551] | 33% | 82% | – | – | 4% | -8% | –
27 | Oc1ccc(CCOc2ccc(CCn3cnc4ccccc43)cc2)cc1 [12αb, 1-(4-(4-Hydroxyphenethoxy)phenethyl)-1H-benzo[d]imidazol hydrochloride] | -1% | 3% | -25% | -7% | -4% | – | percent change in peak amplitude vs DMSO control (negative = inhibition, positive = activation) at 100 µM [6]: 0%
28 | COc1ccccc1CCOc1ccc(CCn2cnc3ccccc32)cc1 [6αac DAD 4-566] | 87.2% | 84.3% | 31.1% | -9.6% | -9% | -13.2% | inhibition at 0.1 µM [7]: -12.9%; inhibition at 0.1 µM [13]: -2.3%; inhibition at 1 µM [8]: -6.2%; inhibition at 1 µM [9]: 1.1%; IC50 (Lymphocyte): 13.5 µM

Source: patent US12686664B2, “SOCE inhibitors and therapeutic uses thereof” (Institut National de la Santé et de la Recherche Médicale …, priority 2020, dated 2026)
